Laboratory results published in patent US20260216347A1, “Substituted Imidazo-Based Compounds as Ligand Directed Degraders of IRAK3” (Celgene Corporation, priority 2022, published 2026).

Target: T1, IRAK3-ePL (Homo sapiens, UniProt Q9Y616)
T1 construct: expressed in transfected cells; host or cells: 293T CRBN OE/GSPT1 G575N KI cells, lentiviral transduction, puromycin selected
Test: IRAK3-ePL overexpressing degradation assay (InCELL Hunter luminescence, dose response)
Assay type: cell-based
Details: for IRAK3 ePL degradation Ymin: lowest percentage of target protein remaining following compound treatment; for DC50: read-out: IRAK3 ePL degradation EC50
Summary of the method: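 Lenti-X 293T CRBN/GSPT1 G575N cells stably expressing IRAK3-ePL (5,000/well) treated overnight at 37° C with 10-point 3-fold dilutions from 10 μM, 0.2% DMSO. InCELL Hunter luminescence, background subtracted using Ataluren wells and normalized to DMSO; EC50 from four-parameter logistic fit.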

| SMILES | IRAK3 ePL degradation Ymin | DC50 |
| --- | --- | --- |
| Cc1cc(-c2cnc(Nc3cnn([C@H]4CCN(CCN5CCN(c6ccc(C7CCC(=O)NC7=O)cc6)C[C@H]5C)[C@@H](C)C4)c3)c3nccn23)c(F)cc1F (stereo partly drawn) [Compound 35, 3-(4-((R)-4-(2-((2S,4S)-4-(4-((5-(2,4-difluoro-5-methylphenyl)imdazo [1,2-a]pyrazin-8-yl)amino)-1H-pyrazol-1-yl)-2-methylpiperidin-1-yl)ethyl)-3-methylpiperazin-1-yl)phenyl) piperidine-2,6-dione] | 24% | 0.63 nM |
| Cc1cc(-c2cnc(Nc3cnn([C@H]4CCN(CCN5CCN(c6ccc(C7CCC(=O)NC7=O)cc6)CC5)C[C@@H]4F)c3)c3nccn23)c(F)cc1F (stereo partly drawn) [Compound 72, 3-(4-(4-(2-((3S,4S)-4-(4-((5-(2,4-difluoro-5-methylphenyl)imdazo [1,2-a]pyrazin-8-yl)amino)-1H-pyrazol-1-yl)-3-fluoropiperidin-1-yl)ethyl)piperazin-1-yl)phenyl) piperidine-2,6-dione] | 24% | 0.51 nM |
| O=C1CCC(c2ccc(N3CCN(CCN4CCC(n5cc(Nc6ncc(-c7ccc(F)cc7)n7ccnc67)cn5)CC4)CC3)cc2)C(=O)N1 (stereo not shown) [Compound 74, 3-(4-(4-(2-(4-(4-((5-(4-fluorophenyl)imidazo [1,2-a]pyrazin-8-yl)amino)-1H-pyrazol-1-yl)piperidin-1-yl)ethyl)piperazin-1-yl)phenyl) piperidine-2,6-dione] | 26% | 1 nM |
| O=C1CCC(c2ccc(N3CCN(CCN4CCC(n5cc(Nc6ncc(-c7ccccc7F)n7ccnc67)cn5)CC4)CC3)cc2)C(=O)N1 (stereo not shown) [Compound 75, 3-(4-(4-(2-(4-(4-((5-(2-fluorophenyl)imidazo [1,2-a]pyrazin-8-yl)amino)-1H-pyrazol-1-yl)piperidin-1-yl)ethyl)piperazin-1-yl)phenyl) piperidine-2,6-dione] | 25% | 4.1 nM |
| Cc1cc(-c2cnc(Nc3cnn(C4CCN(CCN5CCN(c6ccc([C@]7(C)CCC(=O)NC7=O)cc6)CC5)CC4)c3)c3nccn23)c(F)cc1F [Compound 76, (S)-3-(4-(4-(2-(4-(4-((5-(2,4-difluoro-5-methylphenyl)imdazo [1,2-a]pyrazin-8-yl)amino)-1H-pyrazol-1-yl)piperidin-1-yl)ethyl)piperazin-1-yl)phenyl)-3-methylpiperidine-2,6-dione] | 78% | – |
| Cc1cc(-c2cnc(Nc3cnn(C4CCN(CCN5CCN(c6ccc([C@@]7(C)CCC(=O)NC7=O)cc6)CC5)CC4)c3)c3nccn23)c(F)cc1F [Compound 77, (R)-3-(4-(4-(2-(4-(4-((5-(2,4-difluoro-5-methylphenyl)imdazo [1,2-a]pyrazin-8-yl)amino)-1H-pyrazol-1-yl)piperidin-1-yl)ethyl)piperazin-1-yl)phenyl)-3-methylpiperidine-2,6-dione] | 27% | 1.1 nM |
| O=C1CCC(c2ccc(N3CCN(CCN4CCC(n5cc(Nc6ncc(-c7cccc(F)c7)n7ccnc67)cn5)CC4)CC3)cc2)C(=O)N1 (stereo not shown) [Compound 80, 3-(4-(4-(2-(4-(4-((5-(3-fluorophenyl)imidazo [1,2-a]pyrazin-8-yl)amino)-1H-pyrazol-1-yl)piperidin-1-yl)ethyl)piperazin-1-yl)phenyl) piperidine-2,6-dione] | 28% | 26 nM |
| Cc1cc(-c2cnc(Nc3cnn([C@H]4CC[C@H](CCN5CCN(c6ccc([C@@]7(C)CCC(=O)NC7=O)cc6)CC5)CC4)c3)c3nccn23)c(F)cc1F [Compound 81, (R)-3-(4-(4-(2-((trans)-4-(4-((5-(2,4-difluoro-5-methylphenyl)imidazo[1,2-a]pyrazin-8-yl)amino)-1H-pyrazol-1-yl)cyclohexyl)ethyl)piperazin-1-yl)phenyl)-3-methylpiperidine-2,6-dione] | 27% | 3.3 nM |
| Cc1cc(-c2cnc(Nc3cnn([C@H]4CC[C@H](CCN5CCN(c6ccc([C@]7(C)CCC(=O)NC7=O)cc6)CC5)CC4)c3)c3nccn23)c(F)cc1F [Compound 82, (S)-3-(4-(4-(2-((trans)-4-(4-((5-(2,4-difluoro-5-methylphenyl)imidazo[1,2-a]pyrazin-8-yl)amino)-1H-pyrazol-1-yl)cyclohexyl)ethyl)piperazin-1-yl)phenyl)-3-methylpiperidine-2,6-dione] | 66% | – |
